Experimental findings from BindingDB's records for doi:10.1016/j.chembiol.2006.12.006 (Research Institute, Hospital For Sick Children, 2007) are described below.

The experiment addresses T1, Beta-hexosaminidase subunit alpha (Homo sapiens, UniProt P06865).
T1 sequence (P06865 whole entry): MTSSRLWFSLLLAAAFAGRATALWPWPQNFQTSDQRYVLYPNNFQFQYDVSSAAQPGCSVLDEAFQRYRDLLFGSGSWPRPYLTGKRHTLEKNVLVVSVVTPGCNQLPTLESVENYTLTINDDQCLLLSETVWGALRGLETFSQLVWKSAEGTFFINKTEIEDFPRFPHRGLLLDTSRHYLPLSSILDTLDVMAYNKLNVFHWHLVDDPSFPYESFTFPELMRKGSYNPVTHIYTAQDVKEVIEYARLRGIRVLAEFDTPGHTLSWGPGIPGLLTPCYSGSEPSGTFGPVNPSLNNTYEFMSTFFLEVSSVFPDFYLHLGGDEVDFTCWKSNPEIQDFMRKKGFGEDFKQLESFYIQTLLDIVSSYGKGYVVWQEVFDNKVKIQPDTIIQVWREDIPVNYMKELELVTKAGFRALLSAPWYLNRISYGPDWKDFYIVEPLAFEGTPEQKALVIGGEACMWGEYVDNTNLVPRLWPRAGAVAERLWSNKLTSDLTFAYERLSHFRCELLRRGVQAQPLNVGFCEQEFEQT
The experiment in a line: Enzyme Inhibition Assay. Particulars: 25 °C. The text has this:
Enzyme assay based on 4-MU substrates with HTS to identify inhibitory compounds for Hex.
`O=C1c2cccc3cccc(c23)C(=O)N1CCCc1ccccn1` [M-31862] came in with an IC50 of 108 µM.

In the case of `O=C1NC(=O)c2cccc3cccc1c23` [BTB12933], the IC50 stood at 18 µM.

`O=C1c2cccc3cccc(c23)C(=O)N1CCCO` [5141402] yielded an IC50 of 16 µM.

The compound `O=C1c2cccc3cccc(c23)C(=O)N1CC1CCCO1` (stereo not given) [M-31860] displayed an IC50 of 138 µM.

Compound `CC(O)CCN1C(=O)c2cccc3cccc(c23)C1=O` (stereo not given) [M-31867] gave an IC50 of 31 µM.
